Measurements: patent US8772495B2, “5-lipoxygenase-activating protein inhibitor” (Panmira Pharmaceuticals, LLC, priority 2008, dated 2014)
Where “and” joins values, the source holds several entries; their conditions need not be identical. Equal values may be shown once. Read-outs that look alike come from different tables or passages of the source.

Key:
[1] = Single-dose pharmacokinetics in beagle dogs; type: in vivo, female beagle dogs; details: for Cmax: Oral
CYP3A4 [2] = biological target: T1, CYP3A4 (Homo sapiens (Human), UniProt P08684); assay: Cellular cytochrome P450 induction in cryopreserved human hepatocytes; details: tested at 10 μM, midazolam substrate
[3] = Thermodynamic aqueous solubility by HPLC; type: physicochemical; details: water
Method: The suspension was equilibrated at 25° C. for 24 hours then the pH was measured. The suspension was then filtered through a glass fibre C filter into a 96 well plate. […] Quantitation was by HPLC with reference to a standard solution of approximately 0.1 mg.ml^−1 in DMSO. Different volumes of the standard, diluted and undiluted sample solutions were injected.
Analysis was performed on an Agilent HP1100 series system equipped with a diode array detector and using ChemStation software vB.02.01-SR1.

[4] = Phase I study: pharmacokinetics after single and multiple oral doses; type: in vivo; details: human, plasma
Description: Study Design: Single center, double-blind, randomized, placebo-controlled, single ascending dose followed by multiple ascending dose study.
Sample Size: (1) Single Dose Phase: eight (8) subjects (6 active, 2 placebo) per dose level; up to 5 dose levels are planned (a total of 40 subjects if all 5 dose levels are completed); and (2) Multiple Dose Phase: eight (8) subjects (6 active, 2 placebo) per dose level; up to 4 dose levels are planned (a total of 32 subjects if all 4 dose levels are completed).
Formulations: Compound 2 was supplied as an oral powder for reconstitution. Placebo solution matched. […] The placebo differed only in the absence of the active.
The following dosing cohorts were used:
Routes of Administration: All doses were administered orally with approximately 100 mL of water rinse. Subjects were fasted for at least 8 hours prior to dosing and for 2 hours after dosing. For BID dosing in the Multiple Dose Phase, when applicable, subjects were fasted for at least 2 hours prior to the second daily dose.
Plasma concentrations of Compound 1 were determined using a validated LC/MS method. Whole blood ionophore-stimulated leukotriene LTB4 and urinary LTE4 production were assayed by ELISA and mass spectrometry, respectively.
Analysis of Samples: Concentrations of Compound 1 was determined in plasma samples collected from subjects. Similarly, concentrations of LTB4 in plasma and urinary LTE4 were determined in blood and urine samples collected.

human FLAP = human FLAP (Homo sapiens (Human), UniProt P20292); assay: FLAP binding assay (membrane radioligand binding); details: read-out: IC50, inhibition of FLAP radioligand binding; individual tests 1-8
CYP3A4 [5] = biological target: T1, CYP3A4; assay: Extracellular cytochrome P450 inhibition (microsomes); type: in vitro ADME; details: concentrations up to and exceeding 40 μM
CYP2D6 = CYP2D6 (Homo sapiens (Human), UniProt P10635); assay: as above; type: in vitro ADME; details: concentrations up to and exceeding 40 μM
[6] = Oral administration of liquid formulations to rats; design: species or system male Spargue-Dawley rats; details: Sprague-Dawley, rat, in vivo, solutions of Table 19, male rats
CYP1A2 = CYP1A2 (Homo sapiens (Human), UniProt P05177); assay: Extracellular cytochrome P450 inhibition (microsomes); type: in vitro ADME; details: concentrations up to and exceeding 40 μM
Method: Aliquots of this mixture (89 μL) were delivered to each well of a 96-well polypropylene plate which contained an aliquot of inhibitor (1 μL). Final solvent concentrations were 1% (v/v) or less. Incubations were commenced with the addition of 10 μL β-NADPH (10 mM stock) to a final volume of 100 μL. […] Samples were centrifuged, and supernatant was transferred for LC-MS analysis.

LTB4 in Rat Whole Blood = assay: Rat whole blood LTB4 inhibition assay; type: cell-based; details: individual tests 1-5
CYP2C19 = CYP2C19 (Homo sapiens (Human), UniProt P33261); assay: Extracellular cytochrome P450 inhibition (microsomes); type: in vitro ADME; details: concentrations up to and exceeding 40 μM
Description: Final solvent concentrations were 1% (v/v) or less.

[7] = Plasma binding (equilibrium dialysis); type: in vitro ADME; details: read-out: % Bound (converted)
Method: Experiments were performed using equilibrium dialysis.

[8] = female, beagle, dog, plasma, po, 5 mg/kg, 0.5% Methylcellulose, Fasted
[9] = female, beagle, dog, plasma, po, 5 mg/kg, 0.5% Methylcellulose, Fed
[10] = female, beagle, dog, plasma, po, 6.5 mg/kg, 50 mg Pill, Fasted
[11] = female, beagle, dog, plasma, po, 6.5 mg/kg, 50 mg Pill, Fed
[12] = oral, 10 mg, multiple dose 10 mg, Day 1
[13] = oral, 10 mg, multiple dose 10 mg, Day 11
[14] = oral, 50 mg, multiple dose 50 mg, Day 1
[15] = oral, 50 mg, multiple dose 50 mg, Day 11
[16] = oral, 150 mg, multiple dose 150 mg, Day 1
[17] = oral, 150 mg, multiple dose 150 mg, Day 11
[18] = oral, 450 mg, multiple dose 450 mg, Day 1
[19] = oral, 450 mg, multiple dose 450 mg, Day 11
[20] = po, 50 mg, single dose 50 mg, oral solution
[21] = po, 150 mg, single dose 150 mg, oral solution
[22] = po, 300 mg, single dose 300 mg, oral solution
[23] = po, 600 mg, single dose 600 mg, oral solution
[24] = po, 1000 mg, single dose 1000 mg, oral solution

human FLAP, sequence (P20292 whole entry): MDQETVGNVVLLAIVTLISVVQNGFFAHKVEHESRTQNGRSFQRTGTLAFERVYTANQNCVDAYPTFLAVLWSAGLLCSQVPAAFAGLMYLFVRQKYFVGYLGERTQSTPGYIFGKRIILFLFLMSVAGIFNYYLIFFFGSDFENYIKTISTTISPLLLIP
T1 sequence (P08684 whole entry, looked up): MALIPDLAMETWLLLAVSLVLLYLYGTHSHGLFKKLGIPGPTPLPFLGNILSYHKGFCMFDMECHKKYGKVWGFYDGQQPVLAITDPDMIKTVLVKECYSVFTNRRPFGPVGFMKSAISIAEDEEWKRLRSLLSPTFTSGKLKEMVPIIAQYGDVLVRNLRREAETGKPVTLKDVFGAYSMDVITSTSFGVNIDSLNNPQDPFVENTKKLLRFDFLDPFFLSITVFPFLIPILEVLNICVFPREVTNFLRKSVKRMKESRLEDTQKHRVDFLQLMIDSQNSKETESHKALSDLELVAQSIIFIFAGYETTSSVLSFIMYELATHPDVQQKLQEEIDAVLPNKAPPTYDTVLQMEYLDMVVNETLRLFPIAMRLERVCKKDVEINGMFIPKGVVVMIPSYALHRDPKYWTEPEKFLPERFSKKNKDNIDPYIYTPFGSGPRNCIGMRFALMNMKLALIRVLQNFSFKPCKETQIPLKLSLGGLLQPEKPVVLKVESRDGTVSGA
CYP2C19, sequence (P33261 whole entry): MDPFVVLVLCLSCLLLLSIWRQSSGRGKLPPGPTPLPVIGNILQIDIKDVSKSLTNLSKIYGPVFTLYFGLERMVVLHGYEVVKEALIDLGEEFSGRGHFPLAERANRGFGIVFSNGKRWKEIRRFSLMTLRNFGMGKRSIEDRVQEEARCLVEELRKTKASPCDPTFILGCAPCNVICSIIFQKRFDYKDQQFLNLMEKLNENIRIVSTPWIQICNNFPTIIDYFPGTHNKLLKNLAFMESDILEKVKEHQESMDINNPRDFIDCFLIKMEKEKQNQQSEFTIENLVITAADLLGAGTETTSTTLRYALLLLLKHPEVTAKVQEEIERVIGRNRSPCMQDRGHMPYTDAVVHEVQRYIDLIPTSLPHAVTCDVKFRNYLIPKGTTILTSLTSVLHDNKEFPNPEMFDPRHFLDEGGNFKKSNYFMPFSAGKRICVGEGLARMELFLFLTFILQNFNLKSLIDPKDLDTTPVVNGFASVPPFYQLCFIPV
CYP2D6, sequence (P10635 whole entry): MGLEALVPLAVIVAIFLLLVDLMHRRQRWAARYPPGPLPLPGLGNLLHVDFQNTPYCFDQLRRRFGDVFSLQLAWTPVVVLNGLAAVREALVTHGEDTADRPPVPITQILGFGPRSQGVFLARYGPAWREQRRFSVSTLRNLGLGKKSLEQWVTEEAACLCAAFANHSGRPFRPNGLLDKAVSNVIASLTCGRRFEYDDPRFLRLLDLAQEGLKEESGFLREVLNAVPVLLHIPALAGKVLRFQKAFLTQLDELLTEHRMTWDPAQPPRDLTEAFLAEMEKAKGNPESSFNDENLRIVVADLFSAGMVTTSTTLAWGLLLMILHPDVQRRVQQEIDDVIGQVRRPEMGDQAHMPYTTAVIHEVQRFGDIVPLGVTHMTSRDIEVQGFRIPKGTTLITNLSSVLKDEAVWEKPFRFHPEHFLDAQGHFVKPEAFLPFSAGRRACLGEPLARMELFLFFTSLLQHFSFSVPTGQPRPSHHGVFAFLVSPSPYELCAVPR
CYP1A2, sequence (P05177 whole entry): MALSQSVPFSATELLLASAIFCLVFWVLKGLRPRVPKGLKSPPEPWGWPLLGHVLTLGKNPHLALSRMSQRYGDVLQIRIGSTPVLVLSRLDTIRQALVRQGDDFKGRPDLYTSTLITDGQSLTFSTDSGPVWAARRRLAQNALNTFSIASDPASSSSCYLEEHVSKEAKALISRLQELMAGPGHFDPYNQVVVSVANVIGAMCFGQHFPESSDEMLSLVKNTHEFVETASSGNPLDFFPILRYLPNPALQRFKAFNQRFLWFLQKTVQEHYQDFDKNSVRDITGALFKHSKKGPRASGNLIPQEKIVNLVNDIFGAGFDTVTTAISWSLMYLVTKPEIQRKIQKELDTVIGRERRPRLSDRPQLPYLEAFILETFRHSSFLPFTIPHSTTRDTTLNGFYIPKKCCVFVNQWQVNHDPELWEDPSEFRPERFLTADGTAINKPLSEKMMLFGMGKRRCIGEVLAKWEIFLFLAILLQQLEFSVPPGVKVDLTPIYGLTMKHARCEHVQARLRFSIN

With `CCOc1ccc(-c2ccc(Cn3c(CC(C)(C)C(=O)[O-])c(SC(C)(C)C)c4cc(OCc5ccc(C)cn5)ccc43)cc2)cn1.[Na+]` [Compound 2, sodium 3-[3-(tert-butylsulfanyl)-1-[4-(6-ethoxy-pyridin-3-yl)benzyl]-5-(5-methyl-pyridin-2-yl-methoxy)-1H-indol-2-yl]-2,2-dimethylpropionate] the Cmax ([1]; 0.5% Methylcellulose, 5 mg/kg, Fasted) was 12400 ng/mL, the “reduction in oral bioavailability and dose-adjusted AUC, IR pill compared to oral suspension” value ([1]; fasted or fed comparator dogs) was ~30% and the AUC(0-inf) [1, 8] was 67800 ng·h/mL. It also gave a Tmax [1, 8] of 2 h, a bioavailability [1, 8] of 52% and an AUC(0-inf) [1, 9] of 24300 ng·h/mL. It also gave a Tmax [1, 9] of 1.3 h, a bioavailability [1, 9] of 19% and a Cmax ([1]; female, beagle, dog, plasma, po, 5 mg/kg, 0.5% Methylcellulose, 5 mg/kg, Fed, read-out: Cmax) of 3700 ng/mL. For the same compound, the AUC(0-inf) [1, 10] was 41000 ng·h/mL, the Tmax [1, 10] was 2 h and the bioavailability [1, 10] was 24%. For the same compound, the AUC(0-inf) [1, 11] was 14400 ng·h/mL, the Tmax [1, 11] was 1.7 h and the bioavailability [1, 11] was 8.4%. The Cmax ([1]; female, beagle, dog, plasma, po, 6.5 mg/kg, 50 mg Pill, 6.5 mg/kg, Fasted, read-out: Cmax) was 7600 ng/mL, the Cmax ([1]; female, beagle, dog, plasma, po, 6.5 mg/kg, 50 mg Pill, 6.5 mg/kg, Fed, read-out: Cmax) was 3200 ng/mL and the half-life ([1]; female, beagle, dog, plasma, IV, 4:1 PEG400:Water, 0.67 mg/kg, Fasted) was 780 min. The CYP3A4 induction (CYP3A4 [2]) was “No apparent induction”, the “pH of unfiltered saturated solution” value ([3]; 25° C.) was “above 9” and the solubility at 24 h ([3]; 25 °C, thermodynamic from solid, both batches) was > 10000 µg/mL. The Cmax [4, 12] was 70 ± 10 nM, the Tmax [4, 12] was 4 ± 3.1 h and the AUC(0-t) ([4]; oral, 10 mg, multiple dose 10 mg, Day 1, read-out: AUClast) was 1.1 ± 0.2 µM·h. The half-life ([4]; oral, 10 mg, multiple dose 10 mg, Day 1, read-out: t½ (converted)) was 1920 ± 1380 min, the Cmax [4, 13] was 130 ± 50 nM and the Tmax [4, 13] was 10 ± 6.9 h. It also gave an AUC(0-t) ([4]; oral, 10 mg, multiple dose 10 mg, Day 11, read-out: AUClast) of 2.4 ± 1.1 µM·h, a half-life ([4]; oral, 10 mg, multiple dose 10 mg, Day 11, read-out: t½ (converted)) of 3000 ± 2460 min and a Cmax [4, 14] of 600 ± 200 nM. It also gave a Tmax [4, 14] of 4.2 ± 3 h, an AUC(0-t) ([4]; oral, 50 mg, multiple dose 50 mg, Day 1, read-out: AUClast) of 8.3 ± 2.9 µM·h and a half-life ([4]; oral, 50 mg, multiple dose 50 mg, Day 1, read-out: t½ (converted)) of 1140 ± 600 min. It also gave a Cmax [4, 15] of 900 ± 100 nM, a Tmax [4, 15] of 3.2 ± 2 h and an AUC(0-t) ([4]; oral, 50 mg, multiple dose 50 mg, Day 11, read-out: AUClast) of 13.5 ± 3.4 µM·h. The half-life ([4]; oral, 50 mg, multiple dose 50 mg, Day 11, read-out: t½ (converted)) was 1500 ± 660 min, the Cmax [4, 16] was 1400 ± 700 nM and the Tmax [4, 16] was 2.3 ± 0.8 h. It also gave an AUC(0-t) ([4]; oral, 150 mg, multiple dose 150 mg, Day 1, read-out: AUClast) of 16 ± 6.8 µM·h, a half-life ([4]; oral, 150 mg, multiple dose 150 mg, Day 1, read-out: t½ (converted)) of 960 ± 462 min and a Cmax [4, 17] of 3000 ± 1200 nM. It also gave a Tmax [4, 17] of 2 h, an AUC(0-t) ([4]; oral, 150 mg, multiple dose 150 mg, Day 11, read-out: AUClast) of 33 ± 16 µM·h and a half-life ([4]; oral, 150 mg, multiple dose 150 mg, Day 11, read-out: t½ (converted)) of 1140 ± 780 min. It also gave a Cmax [4, 18] of 7300 ± 6000 nM, a Tmax [4, 18] of 2 h and an AUC(0-t) ([4]; oral, 450 mg, multiple dose 450 mg, Day 1, read-out: AUClast) of 57 ± 39 µM·h. The half-life ([4]; oral, 450 mg, multiple dose 450 mg, Day 1, read-out: t½ (converted)) was 720 ± 240 min, the Cmax [4, 19] was 9300 ± 5400 nM and the Tmax [4, 19] was 2 h. It also gave an AUC(0-t) ([4]; oral, 450 mg, multiple dose 450 mg, Day 11, read-out: AUClast) of 76 ± 33 µM·h, a half-life ([4]; oral, 450 mg, multiple dose 450 mg, Day 11, read-out: t½ (converted)) of 840 ± 240 min and a Cmax [4, 20] of 570 ± 300 nM. It also gave a Tmax [4, 20] of 2.2 ± 0.4 h, an AUC(0-t) ([4]; po, 50 mg, single dose 50 mg, oral solution, read-out: AUC0-24) of 6.5 ± 2.2 µM·h and a half-life ([4]; po, 50 mg, single dose 50 mg, oral solution, read-out: t1/2 (converted)) of 768 ± 174 min. The Cmax [4, 21] was 2200 ± 500 nM, the Tmax [4, 21] was 2.3 ± 0.5 h and the AUC(0-t) ([4]; po, 150 mg, single dose 150 mg, oral solution, read-out: AUC0-24) was 21.7 ± 6.1 µM·h. The half-life ([4]; po, 150 mg, single dose 150 mg, oral solution, read-out: t1/2 (converted)) was 666 ± 168 min, the Cmax [4, 22] was 3000 ± 1500 nM and the Tmax [4, 22] was 2.7 ± 1.5 h. The AUC(0-t) ([4]; po, 300 mg, single dose 300 mg, oral solution, read-out: AUC0-24) was 23.6 ± 5.9 µM·h, the half-life ([4]; po, 300 mg, single dose 300 mg, oral solution, read-out: t1/2 (converted)) was 588 ± 150 min and the Cmax [4, 23] was 11200 ± 7000 nM. It also gave a Tmax [4, 23] of 2.3 ± 0.5 h, an AUC(0-t) ([4]; po, 600 mg, single dose 600 mg, oral solution, read-out: AUC0-24) of 90 ± 50 µM·h and a half-life ([4]; po, 600 mg, single dose 600 mg, oral solution, read-out: t1/2 (converted)) of 846 ± 408 min. The Cmax [4, 24] was 18200 ± 7600 nM, the Tmax [4, 24] was 2 h and the AUC(0-t) ([4]; po, 1000 mg, single dose 1000 mg, oral solution, read-out: AUC0-24) was 110 ± 49 µM·h. The half-life ([4]; po, 1000 mg, single dose 1000 mg, oral solution, read-out: t1/2 (converted)) was 498 ± 66 min, the IC50 (human FLAP) was 2.8 nM and 2.2 nM and the apparent inhibition (CYP3A4 [5]) was “No apparent inhibition”. The apparent inhibition (CYP2D6) was “No apparent inhibition”, the Tmax [6] was ≤ 2 h and the apparent inhibition (CYP1A2) was “No apparent inhibition”. For the same compound, the IC50 (LTB4 in Rat Whole Blood) was 302 nM and 160 nM and 380 nM and 212 nM and 141 nM, the apparent inhibition (CYP2C19) was “No apparent inhibition” and the fraction unbound at 10 μM ([7]; human plasma) was 0.005. For the same compound, the fraction unbound at 10 μM ([7]; mixed breeds, dog plasma) was 0.003 and the fraction unbound at 10 μM ([7]; mixed breeds, rat plasma) was 0.002.
